From US9126968B2, “Quinic acid derivative, process for preparation and uses thereof” (NATIONAL APPLIED RESEARCH LABORATORIES, priority 2013, dated 2015)
Converted amounts (≈) assume the structure as drawn. “Also recorded” adds a separate entry of the source.

Key:
[1] = single dose toxicity test; conditions: mouse, in vivo, mice, read-out: maximum tolerance dose (MTD)
[2] = test system: IL-2 expressed from signal 2 pathway of T-cells; test: in vitro IC50 measurement (reduction of IL-2); type: cell-based; conditions: T-cell; dosage causing 50% reduction of IL-2; FIG. 8; read-out: IC50 on blocking T-cell immune response
Source text: The IC50 represents the dosage which causes 50% reduction of IL-2 expressed from signal 2 pathway of T-cells.

[3] = test system: T-cells; test: in vitro cytotoxicity test (MTT assay); type: cell-based; conditions: compared with cynarin, FIG. 5
Method: The amount of survival T-cells is measured by MTT assay. […] Conversely, they are less cytotoxic than cynarin.

[4] = test system: T-cells; test: in vitro efficacy test: production of IL-2 from T-cells; type: cell-based; conditions: compared with cynarin; FIG. 6
Source text: The production of IL-2 is reduced when the activation of T-cells is interfered.

[5] = target: CD28 of T-cells and CD80 of B-cells (Homo sapiens, UniProt P10747); test: unbinding force test; type: binding; conditions: in the presence of Cyn-1324; about 41.9 pN in its absence; FIG. 7
Source text: In the absence of Cyn-1324, the average unbinding force is about 41.9 pN. Conversely, in the presence of Cyn-1324, the average unbinding force is reduced to about 29.1 pN. The results shown in FIG. 7 provide the physical evidence that Cyn-1324 repulses the binding between CD28 and CD80, thus blocking the signal 2 pathway induced by the interaction of CD28 and co-stimulatory molecules such as CD80 or CD86.

[6] = mouse, in vivo
Method: One of the four mice groups is treated with PBS, and three of the four groups are sensitized with OVA.

[7] = test system: OVA-sensitized mice; conditions: mouse, in vivo
[8] = test system: OVA-sensitized mice; test: in vivo animal test of immuno-suppressive effect (serum antibodies via ELISA); conditions: OVA-sensitized BALB/c mice, serum on 14th day, FIG. 9
Method: The four BALB/c mice groups are treated with phosphate-buffered saline (PBS), ovalbulmin (OVA), OVA/Cyn-1324 or OVA/cyclosporin A (CSA), respectively. CSA is used currently in clinics for suppressing immune response. The 14th-day from the treatments, the serum is collected, and the antibodies such as IgG and IgE are analyzed via ELISA. […] Accordingly, Cyn-1324 is effective for suppressing immune response.

Sequence of CD28 of T-cells and CD80 of B-cells (P10747 19-220): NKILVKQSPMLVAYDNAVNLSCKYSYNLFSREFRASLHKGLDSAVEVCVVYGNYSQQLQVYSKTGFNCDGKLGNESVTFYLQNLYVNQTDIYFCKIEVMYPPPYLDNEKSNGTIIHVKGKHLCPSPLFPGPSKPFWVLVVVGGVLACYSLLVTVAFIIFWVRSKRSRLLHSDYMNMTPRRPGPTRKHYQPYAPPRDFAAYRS

For `CC(C)CNC(=O)[C@@]1(O)C[C@@H](O)[C@@H]2OC3(CCCCC3)O[C@@H]2C1` [Cyn-1324, (3aR,5R,7R,7aS)-5,7-dihydroxy-N-(2-methylpropyl)hexahydrospiro[1,3-benzodioxole-2,1′-cyclohexane]-5-carboxamide], the MTD [1] was roughly 400 mg/kg, the IC50 [2] was roughly 20 µg/mL (≈ 61.1 µM) and the “cell survival rates of T-cells (cytotoxicity)” value [3] was “higher than cynarin; also recorded: lowest cytotoxicity”. The “efficacy to suppress T-cell activation (production of IL-2)” value [4] was “higher (or equal) efficacy; also recorded: high efficacy”, the average unbinding force [5] was “about 29.1 pN” and the “body weight variation versus time” value [6] was “steadily increased”. For the same compound, the “side effect: body swollen” value [7] was “does not cause the similar side effect”, the IgE decrease [8] was “about 23%” and the IgG decrease [8] was “about 30%”.
